Experimental data taken from PubChem BioAssay AID2202554 (NIEHS Division of Translational Toxicology (DTT)).
Records with an inconclusive call do not appear. Calls of active or inactive are those of the source. No rule for the calls is given here. Residues, ends and D or L forms follow the SMILES beside them.

Tested on: S. typhimurium/E. coli reverse mutation, colony counts
Assay: Bacterial reverse mutation test (aka Ames test) summary data
Outline: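 Revertant colony counts on plates, compared with untreated controls, after about two days of growth. Exposure with or without liver S9 (rat/hamster/mouse), dose range per strain, 20-min 37° C preincubation or direct plate incorporation. Strains: his⁻ Salmonella, trp⁻ E. coli WP2 uvrA pKM101.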

| SMILES | outcome |
| --- | --- |
| CCCCOCCOCCO | inactive; negative |
| CCCCC(=O)OCC | inactive; negative |
| C=CC(=O)OCCOCCOCCOCCOC(=O)C=C | inactive; negative |
| O=C(O)CC(O)(CC(=O)OO)C(=O)O (stereo unspecified) | inactive; negative |
| CCN | inactive; negative |
| O=C(NO)c1ccccc1 | active; positive |
| OC(CCl)CCl | active; positive |
| CC(=O)NS(=O)(=O)c1ccc(N)cc1 | inactive; negative |
| COc1ccc(OC)c(N=Nc2c(O)ccc3ccccc23)c1 | active; positive |
| CN=C=O | inactive; negative |
| O=C([O-])c1ccccc1C1c2ccc([O-])c(Br)c2Oc2c1ccc(O)c2Br.[Zr+2] | inactive; negative |
| CCN(Cc1ccccc1)c1ccccc1 | inactive; negative |
| Brc1c(Br)c(Br)c(Oc2c(Br)c(Br)c(Br)c(Br)c2Br)c(Br)c1Br | inactive; negative |
| Cc1noc(NS(=O)(=O)c2ccc(N)cc2)c1C | inactive; negative |
| CCCCOCC1CO1 (stereo unspecified) | active; positive |
| C=CC(=O)OCCCC | inactive; negative |
| Nc1ccc(-c2ccc(N)c(O)c2)cc1O | active; positive |
| NC(=O)c1ccccc1[N+](=O)[O-] | active; positive |
| O=C(Nc1cccc2c(=O)c3c(ccc4c5cc(NC(=O)c6ccccc6)c6c(=O)c7ccccc7c(=O)c6c5[nH]c43)c(=O)c12)c1ccccc1 | inactive; negative |
| O=C1OC(=O)c2ccccc21 | inactive; negative |
| CCCCCCCCC=O | inactive; negative |
| [CH3][Pb]([CH3])([CH3])[CH3] | inactive; negative |
| ClC(Cl)(Cl)Cl | inactive; negative |

| SMILES | outcome |
| --- | --- |
| CN1CCC(CN2c3ccccc3Sc3ccccc32)C1 (stereo unspecified) | inactive; negative |
| CCCCCCCCCCCCCC(=O)N[N+](C)(C)CC(C)[O-] (stereo unspecified) | inactive; negative |
| CCCCCCC[CH2][Sn]1([CH2]CCCCCCC)[O]C(=O)C=CC(=O)[O]1 | inactive; negative |
| Cc1ccc([N+](=O)[O-])c(N)c1 | inactive; negative |
| S=C([S-])NCCNC(=S)[S-].[Zn+2] | inactive; negative |
| C=C(C)/C([O-])=N/[N+](C)(C)CC(C)O (stereo unspecified) | inactive; negative |
| FC(F)(F)c1cccc(Cl)c1 | inactive; negative |
| Nc1ccc(S(=O)(=O)Nc2ccccn2)cc1 | inactive; negative |
| CCNC(=S)NCC | inactive; negative |
| CCCCOCCCC | inactive; negative |
| Cc1ccccc1C(OCCN(C)C)c1ccccc1 (stereo unspecified) | inactive; negative |
| CC1CCC(C(C)CS)CC1S (stereo unspecified) | inactive; negative |
| COc1cc(C=O)ccc1O | inactive; negative |
| CN1C[C@H](C(=O)N[C@]2(C)O[C@@]3(O)[C@@H]4CCCN4C(=O)[C@H](Cc4ccccc4)N3C2=O)C=C2c3cccc4[nH]cc(c34)C[C@H]21 | inactive; negative |
| Oc1ccc(Cl)cc1Sc1cc(Cl)ccc1O | inactive; negative |
| O=C=S | active; weakly positive |
| CCOP(=S)(OCC)Oc1cc(C)nc(C(C)C)n1 | inactive; negative |
| O=c1[nH][nH]c(=O)c2cc([N+](=O)[O-])ccc12 | active; positive |
| CCCCNC(=O)NS(=O)(=O)c1ccc(C)cc1 | inactive; negative |
| CCCC(=O)O | inactive; negative |
| Nc1c(S(=O)(=O)O)cc(Nc2cccc(S(=O)(=O)CCOS(=O)(=O)O)c2)c2c1C(=O)c1ccccc1C2=O | active; positive |
| CCBr | active; positive |
| CS(C)=O | inactive; negative |

| SMILES | outcome |
| --- | --- |
| CCC(Br)(CC)C(=O)NC(N)=O | inactive; negative |
| CC(=O)Nc1ccc(O)cc1 | inactive; negative |
| c1ccc2c(c1)Nc1ccccc1S2 | inactive; negative |
| Oc1ccccc1Cl | inactive; negative |
| CCC(C)(C)C | inactive; negative |
| O=CC=O | active; positive |
| Oc1c(Cl)ccc(Cl)c1Cl | inactive; negative |
| CCCCC(CC)COP(OCC(CC)CCCC)OCC(CC)CCCC (stereo unspecified) | inactive; negative |
| COC(=O)[C@H]1[C@H]2C[C@@H]3c4[nH]c5cc(OC)ccc5c4CCN3C[C@H]2C[C@@H](OC(=O)c2cc(OC)c(OC)c(OC)c2)[C@@H]1OC | inactive; negative |
| FC(Cl)(Cl)Cl | inactive; negative |
| ClC=CC[N+]12CN3CN(CN(C3)C1)C2 | active; weakly positive |
| BrCCBr | active; positive |
| Cc1cc(=O)oc2cc(O)ccc12 | inactive; negative |
| CCCCCCCCCCCCS | inactive; negative |
| CCC(C)C(C)CO (stereo unspecified) | inactive; negative |
| OCCOCCOCCO | active; positive |
| CCCCCCCCCCC1CO1 (stereo unspecified) | inactive; negative |
| Clc1ccc(C(Cl)(Cl)Cl)cc1Cl | active; positive |
| O=P(OCCCl)(OCCCl)OCCCl | inactive; negative |
| O=C1c2c(O)ccc(Nc3ccc(CCO)cc3)c2C(=O)c2c([N+](=O)[O-])ccc(O)c21 | active; positive |
| CC(C)(c1cc(Br)c(OCC(Br)CBr)c(Br)c1)c1cc(Br)c(OCC(Br)CBr)c(Br)c1 (stereo unspecified) | inactive; negative |
| CCCCCCCCCCCC(C)=O | inactive; negative |
| CCCCC(CC)COC(=O)CCCCCCCCC(=O)OCC(CC)CCCC (stereo unspecified) | inactive; negative |

| SMILES | outcome |
| --- | --- |
| COc1cc([C@H]2Oc3cc([C@H]4Oc5cc(O)cc(O)c5C(=O)[C@@H]4O)ccc3O[C@@H]2CO)ccc1O | inactive; negative |
| C=C | inactive; negative |
| CCCCCCOc1ccc(O)cc1 | inactive; negative |
| CCCCC/C=C\C/C=C\CCCCCCCC(=O)O | inactive; negative |
| Clc1cccc(Cl)c1Cl | inactive; negative |
| Oc1c(Cl)cccc1Cl | inactive; negative |
| NC(=O)NC(N)=O | active; positive |
| O=[N+]([O-])c1ccc(F)c([N+](=O)[O-])c1 | active; positive |
| COc1ccc(CCC(=O)c2c(O)cc(O[C@@H]3O[C@H](CO)[C@@H](O)[C@H](O)[C@H]3O[C@@H]3O[C@@H](C)[C@H](O)[C@@H](O)[C@H]3O)cc2O)cc1O | inactive; negative |
| CC(C)(C)c1ccc(OCC2CO2)cc1 (stereo unspecified) | active; positive |
| CCC=O | inactive; negative |
| CN=[N+](C)[O-] | active; weakly positive |
| Oc1ccc(O)cc1 | inactive; negative |
| OCC(O)CI (stereo unspecified) | active; positive |
| O=C(O)c1ccc([N+](=O)[O-])cc1 | active; positive |
| O=C1c2ccccc2C(=O)c2ccccc21 | active; positive |
| C[C@@H]1Cc2c(Cl)cc(C(=O)N[C@@H](Cc3ccccc3)C(=O)O)c(O)c2C(=O)O1 | inactive; negative |
| CC1CC(=O)O1 (stereo unspecified) | active; positive |
| O=C1CCCCC1 | inactive; negative |
| Nc1ccccc1 | inactive; negative |
| COC(=O)[C@H](Cc1ccccc1)NC(=O)[C@@H](N)CC(=O)O (H-Asp-Phe-OMe) | inactive; negative |
| CC1CCCO1 (stereo unspecified) | inactive; negative |
